{"source": "patent US20220000964A1", "about": "“Compositions and Methods for Regulating Homeostasis of Chondrocytes, Extracellular Matrix, Articular Cartilage, and Phenotype of Arthritis” (Unigen, Inc., priority 2020, published 2022)", "type_in_all_cases": "in vivo, rat", "key": {"Sprague Dawley rats": {"system": "Sprague Dawley rats", "test": "Hot plate test, topical application, paw withdrawal latency", "details": "dose (%): Ibuprofen 5, Capsaicin 0.5, Diclofenac 1, others 5", "text": "Repeated application of anti-inflammatory compounds or extracts topically at the site of thermal contact (noxious stimulus) may cause desensitization of the peripheral afferent pain receptors to produce a delay in response time. A longer change in reaction time could be interpreted as an anti-nociceptive effect of the applied compound. To evaluate whether prepared plant extracts and compositions could provide anti-nociceptive activity, rats received orally-active anti-inflammatory extracts formulated in 2% Aloe vera gel at 5% concentration topically on their hind paws. The applied preparations on each paw were massaged at least 60 times in a circular motion into the skin until the applied content appeared visually absorbed. The procedure was repeated 3 times, every 30 minutes, before placing the animals on a preheated hot plate set to 53° C. The paw withdrawal latency was calculated as the time elapsed from the initial placement of the rat onto the hotplate to the withdrawal (or licking or shaking) of the hind paw in response to the thermal stimulus. Animals were immediately removed when this response was observed.\nThe anti-pain activity of medicinal plant extracts was tested on a hot plate set at 53° C. Test materials at 5% concentrations were topically applied at 20 μl/paw to the hind paws of both right and left paws of Sprague Dawley rats (n=10 per group). Applications of these extracts were carried out every 30 minutes for a total of 90 minutes. Within these 90 minutes, rats received a total of 60 μl/paw of the test article per rat. At 5% concentration, each rat received 3 mg/paw of the test articles. Due to the solubility characteristics of the compounds, two types of vehicles, V1=Dimethyl sulfoxide (DMSO)+propylene glycol (PG)+Aloe (2%), and V2=DMSO+OIL+PG, were used. Percent changes and P-values for statistical significance were determined using respective vehicles for each test material. The vehicle used for each material has been indicated in the parenthesis next to the test material. […] These increases in anti-pain activity were statistically significant. […] This percent change was statistically significant when compared to its respective vehicle."}, "MIA-induced OA rats [1]": {"system": "MIA-induced OA rats", "test": "MIA-induced OA rats, histopathology (modified Mankin)", "details": "10 mg/kg", "method": "(§1) Treatment started a week before MIA injection. Animals were randomized into five groups of 10 rats per group as G1=normal, G2=vehicle (0.5% CMC-Na solution), G3=Diclofenac (10 mg/kg, Lot #W08B043, Ward Hill, Mass.), G4=AMK (100 mg/kg) and G5=AMK (300 mg/kg), were orally gavaged with respective treatment. On the induction day, isoflurane (Lot #B66H15A, Piramal Enterprise Ltd. Andhra Pradesh, India) anesthetized rats were injected with 0.8 mg of MIA (Lot #A0352046, Acros Organics, New Jersey, USA) in 50 μL saline solution into the intra-articular pocket of left femorotibial (knee) joint using 26 G needle an hour after treatment. Normal control rats were injected with an equal volume of saline. Paw withdrawal thresholds as a result of constant pressure applied to the affected joint as a measure of pain sensitivity were taken once a week using Randall-Salitto Anesthesiometer (IITC, USA) and treatment lasted for 6 weeks. Body weights were measured once a week to calculate the respective weekly dosage of each group. Urine was collected at the end of study using metabolic cages. Blood samples were collected to isolate serum for biomarker analysis. At necropsy, animals were asphyxiated with CO2 and the femorotibial joint was carefully dissected out, fixed in 10% buffered formalin and sent to Nationwide Histology (Veradale, Wash., USA) for further histopathology analysis. The fixed specimens were then decalcified with Calci-Clear Rapid for 1 and a half days and embedded in paraffin. Standardized […] serial sections were obtained at the medial and lateral mid-condylar level in the sagittal plane and were stained with hematoxylin and eosin (HE) and Safranin O-fast green to enable evaluation of proteoglycan content. A modified Mankin system (Mankin et al., 1981) was used to score structural and cellular alterations of articular components as indications of disease progression and/or treatment efficacy. The histological analysis was conducted by a certified Pathologist at Nationwide Histology."}, "MIA-induced OA rats [2]": {"system": "MIA-induced OA rats", "test": "MIA-induced OA rats, pain sensitivity (paw withdrawal threshold, Randall-Salitto)", "details": "10 mg/kg oral; for inhibition at 10 mg/kg: Rattus norvegicus, po, read-out: Knee compression sensitivity, percent inhibition against vehicle treated MIA rats", "text": "The MIA-induced OA disease model in rats is a standardized model most frequently used to mimic human OA (Lee et al., 2014). The model involves inoculation of MIA into a femorotibial joint pocket that induces pain responses in the ipsilateral limb accompanied by progressive cartilage degradation. Intra-articular injection of MIA disrupts chondrocyte glycolysis by inhibiting […] and results in chondrocyte death, neovascularization, subchondral bone necrosis and collapse, as well as inflammation (Guzman et al., 2003). These phenotypic characteristics make the model very attractive to evaluate compounds for their anti-inflammatory, analgesic and/or potential disease-modifying activities as it shares similar disease pathology to the human OA. As a result, we selected this validated in vivo model to investigate the effect of AMK in mitigating pain sensitivity, regulating the phenotype of joint tissue and maintaining articular structural integrity after being administered orally for 6 weeks.\nas §1"}, "IL-6": {"system": "IL-6", "test": "MIA-induced OA rats, serum IL-6", "details": "10 mg/kg", "method": "Treatment started a week before MIA injection. […] On the induction day, isoflurane (Lot #B66H15A, Piramal Enterprise Ltd. Andhra Pradesh, India) anesthetized rats were injected with 0.8 mg of MIA (Lot #A0352046, Acros Organics, New Jersey, USA) in 50 μL saline solution into the intra-articular pocket of left femorotibial (knee) joint using 26 G needle an hour after treatment. Normal control rats were injected with an equal volume of saline. […] Body weights were measured once a week to calculate the respective weekly dosage of each group. […] The fixed specimens were then decalcified with Calci-Clear Rapid for 1 and a half days and embedded in paraffin. […] The histological analysis was conducted by a certified Pathologist at Nationwide Histology."}}, "note": "Like-named read-outs stand apart in the source and are kept apart here."}
{"smiles": "O=C(O)Cc1ccccc1Nc1c(Cl)cccc1Cl", "note": "[Diclofenac]", "values": [{"measurement": "Paw withdrawal threshold (latency) Mean ± SD", "setting": "Sprague Dawley rats; hot plate 53° C., topical, vehicle V1 (DMSO+PG+Aloe 2%), in s (unit assumed)", "value": "6.93 ± 1.50"}, {"measurement": "% Change", "setting": "Sprague Dawley rats; vs vehicle V1, negative = increased paw withdrawal latency", "value": 2.8, "unit": "%"}, {"measurement": "inhibition in catabolic inflammation and infiltration of inflammatory cells", "setting": "MIA-induced OA rats [1]; MIA rats", "value": 42.8, "unit": "%"}, {"measurement": "reduction in matrix GAG loss", "setting": "MIA-induced OA rats [1]; MIA rats", "value": 34.6, "unit": "%"}, {"measurement": "reduction of overall structural abnormalities", "setting": "MIA-induced OA rats [1]; MIA rats", "value": 41.1, "unit": "%"}, {"measurement": "Bone Erosion (Mean ± SE)", "setting": "MIA-induced OA rats [1]; modified Mankin score", "value": "3.08 ± 0.50"}, {"measurement": "Cartilage destruction (Mean ± SE)", "setting": "MIA-induced OA rats [1]; modified Mankin score", "value": "4.00 ± 0.76"}, {"measurement": "GAG Loss (Mean ± SE)", "setting": "MIA-induced OA rats [1]; modified Mankin score", "value": "3.08 ± 0.57"}, {"measurement": "Inflammation (Mean ± SE)", "setting": "MIA-induced OA rats [1]; modified Mankin score", "value": "1.31 ± 0.22"}, {"measurement": "Bone Erosion, reduction (value in parenthesis)", "setting": "MIA-induced OA rats [1]; vs MIA+ vehicle", "value": "(40.8) %"}, {"measurement": "Cartilage destruction, reduction (value in parenthesis)", "setting": "MIA-induced OA rats [1]; vs MIA+ vehicle", "value": "(41.10%"}, {"measurement": "GAG Loss, reduction (value in parenthesis)", "setting": "MIA-induced OA rats [1]; vs MIA+ vehicle", "value": "(34.6) %"}, {"measurement": "Inflammation, reduction (value in parenthesis)", "setting": "MIA-induced OA rats [1]; vs MIA+ vehicle", "value": "(42.8) %"}, {"measurement": "inhibition at 10 mg/kg", "setting": "MIA-induced OA rats [2]; Wk-0", "value": 0.3, "unit": "%"}, {"measurement": "inhibition at 10 mg/kg", "setting": "MIA-induced OA rats [2]; Wk-1", "value": 19.7, "unit": "%"}, {"measurement": "inhibition at 10 mg/kg", "setting": "MIA-induced OA rats [2]; Wk-2", "value": 24.1, "unit": "%"}, {"measurement": "inhibition at 10 mg/kg", "setting": "MIA-induced OA rats [2]; Wk-3", "value": 28.3, "unit": "%"}, {"measurement": "inhibition at 10 mg/kg", "setting": "MIA-induced OA rats [2]; Wk-4", "value": 30.8, "unit": "%"}, {"measurement": "inhibition at 10 mg/kg", "setting": "MIA-induced OA rats [2]; wk-5", "value": 31.1, "unit": "%"}, {"measurement": "Knee compression sensitivity (Mean ± SD)", "setting": "MIA-induced OA rats [2]; Wk-0", "value": "243.1 ± 2.4"}, {"measurement": "Knee compression sensitivity (Mean ± SD)", "setting": "MIA-induced OA rats [2]; Wk-1", "value": "190.9 ± 2.3"}, {"measurement": "Knee compression sensitivity (Mean ± SD)", "setting": "MIA-induced OA rats [2]; Wk-2", "value": "190.5 ± 2.6"}, {"measurement": "Knee compression sensitivity (Mean ± SD)", "setting": "MIA-induced OA rats [2]; Wk-3", "value": "183.8 ± 2.3"}, {"measurement": "Knee compression sensitivity (Mean ± SD)", "setting": "MIA-induced OA rats [2]; Wk-4", "value": "183.3 ± 1.7"}, {"measurement": "Knee compression sensitivity (Mean ± SD)", "setting": "MIA-induced OA rats [2]; wk-5", "value": "182.0 ± 1.1"}, {"measurement": "IL-6", "setting": "IL-6", "value": "114.2 ± 5.5", "unit": "pg/mL"}]}
